# Test results reported in ChEMBL document CHEMBL2040549, “Inhibition of cap (m7GpppXm)-dependent endonuclease of influenza virus by 4-substituted 2,4-dioxobutanoic acid compounds” (Antimicrob Agents Chemother, 1994).
# Target: Polymerase acidic protein (Influenza A virus (A/Puerto Rico/8/1934(H1N1)), UniProt P03433)
# Assay: Inhibition of cap 1 ALMV primed Influenza transcriptase
row,SMILES,IC50
1,O=C(O)/C(O)=C/c1cc2ccccc2o1,> 500 µM
2,O=C(O)/C(O)=C/C(=O)C1CCCCC1,29.4 µM
3,Cn1c(/C=C(\O)C(=O)O)nc2ccccc21,> 500 µM
4,O=C(CC(O)C(=O)O)c1ccccc1 (stereo not drawn),> 500 µM
5,NC(=O)/C(O)=C/C(=O)C1CCCCC1,> 500 µM
6,NC(CC(=O)c1ccccc1)C(=O)O (stereo not drawn),> 500 µM
7,O=C(O)/C(O)=C/C(=O)C1(Cc2ccc(Cl)cc2)CCCN(S(=O)(=O)Cc2ccccc2)C1 (stereo not drawn),0.19 µM
8,O=C(O)C(=O)CCc1ccccc1,> 500 µM
9,O=C(O)/C(O)=C/S(=O)(=O)c1ccccc1,> 500 µM
10,O=C(O)/C(O)=C/c1nc2ccccc2s1,> 500 µM
11,CC(=O)/C=C(\O)C(=O)O,307 µM
12,CC(C)C(=O)/C=C(\O)C(=O)O,56.7 µM
13,O=C(O)/C(O)=C/c1nc2ccccc2o1,100 µM
